Results published in patent US7132437B2, “Renal-selective biphenylalkyl 1H-substituted-1,2,4-triazole angiotensin II antagonists for treatment of hypertension” (G.D. Searle, priority 1990, dated 2006).

Key:
[1] = system: spontaneously hypertensive rats (SHR); test: Assay D: In Vivo Effects of Chronic Infusion of Conjugate (mean arterial pressure, heart rate); design: species or system rat
Method: Assay D: In Vivo Effects of Chronic Infusion of Conjugate of the Invention
(§1) This in vivo experiment was conducted to characterize the effects of the Example 79 conjugate on spontaneously hypertensive rats (SHR) by acute administration i.v. and by chronic administration i.v. The […] compound or saline vehicle was infused continuously for four days in SHR. Mean arterial pressure was measured (Gould Chart Recorder, model 3800; Statham P23 Db pressure transducer) via an indwelling femoral artery catheter between 10:00 a.m. and 2:00 P.M. each day. The Example 79 conjugate (10 mg/hr) or saline was infused via a jugular vein catheter with a Harvard infusion pump. […] A test was conducted to determine whether the Example 79 conjugate would antagonize non-renal, vascular angiotensin II receptors. In this test AII was administered by bolus injection (100 ng/kg) to the SHR rats (described above) on the control day and on days 1, 3 and 4 during conjugate infusion.

[2] = biological target: T1, non-renal, vascular angiotensin II receptors (Rattus norvegicus, UniProt P25095); test: Assay D: AII pressor response during conjugate infusion (systemic AII antagonism); type: in vivo; conditions: SHR; for AII Pressor Response: 10 mg/hr infusion, AII bolus 100 ng/kg, control day 31 ± 4
T1 construct: from tissue; host or cells: whole animal: spontaneously hypertensive rat (SHR), systemic vasculature
T1 sequence (P25095 1-359): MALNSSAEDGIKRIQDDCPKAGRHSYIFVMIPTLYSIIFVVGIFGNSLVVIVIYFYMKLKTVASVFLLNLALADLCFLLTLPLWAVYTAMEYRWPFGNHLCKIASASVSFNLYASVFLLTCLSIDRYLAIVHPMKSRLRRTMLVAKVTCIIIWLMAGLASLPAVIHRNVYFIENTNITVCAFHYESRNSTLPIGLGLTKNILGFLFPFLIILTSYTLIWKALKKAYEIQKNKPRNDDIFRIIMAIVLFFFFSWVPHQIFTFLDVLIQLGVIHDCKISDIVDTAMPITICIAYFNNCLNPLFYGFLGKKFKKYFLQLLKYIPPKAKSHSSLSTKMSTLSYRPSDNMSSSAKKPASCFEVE
Method: as §1

Row | SMILES | MAP (mean arterial pressure) ([1]; 10 mg/hr i.v. infusion, day 1, control day 183 ± 5, ± SD) [mm Hg] | Heart Rate ([1]; 10 mg/hr i.v. infusion, day 1, control day 352 ± 9, ± SD) [Beats/min.] | MAP (mean arterial pressure) ([1]; 10 mg/hr i.v. infusion, day 2, control day 183 ± 5) [mm Hg] | Heart Rate ([1]; 10 mg/hr i.v. infusion, day 2, control day 352 ± 9) [Beats/min.] | MAP (mean arterial pressure) ([1]; 10 mg/hr i.v. infusion, day 3, control day 183 ± 5) [mm Hg] | Heart Rate ([1]; 10 mg/hr i.v. infusion, day 3, control day 352 ± 9) [Beats/min.] | MAP (mean arterial pressure) ([1]; 10 mg/hr i.v. infusion, day 4, control day 183 ± 5) [mm Hg] | Heart Rate ([1]; 10 mg/hr i.v. infusion, day 4, control day 352 ± 9) [Beats/min.] | AII Pressor Response ([2]; day 1, ± SD) | AII Pressor Response ([2]; day 3) | AII Pressor Response ([2]; day 4) | mean arterial pressure compared to saline vehicle control ([1]; 10 mg/hr infused for four days) | tachycardia ([1]; day 1 of conjugate infusion) | Heart Rate ([1]; days 2 to 4 of conjugate infusion) | systemic angiotensin II receptor antagonism ([2]; AII bolus 100 ng/kg on control day and days 1, 3 and 4 of infusion)
1 | CCCCc1nc(CCCC)n(Cc2ccc(-c3ccccc3C(=O)NNC(=O)CCC(NC(C)=O)C(=O)O)cc2)n1 (stereo not drawn) [Ex. #18 Conjugate, N-acetylglutamic acid, 5-[[4′-[(3,5-dibutyl-1H-1,2,4-triazol-1-yl)methyl][1,1′-biphenyl]-2-yl]]carbonylhydrazide] | 159 ± 7 | 395 ± 21 | 155 ± 4 | 352 ± 12 | 154 ± 6 | 344 ± 22 | 166 ± 9 | 374 ± 20 | 30 ± 6 | 29 ± 5 | 25 ± 3 |  |  |  | 
2 | CCCCc1nc(CCCC)n(Cc2ccc(-c3ccccc3C(=O)NNC(=O)CCC(NC(C)=O)C(=O)O)cc2)n1 (stereo not drawn) [Example 79 conjugate, N-acetylglutamic acid, 5-[[4′-[(3,5-dibutyl-1H-1,2,4-triazol-1-yl)methyl][1,1′-biphenyl]-2-yl]]carbonylhydrazide] |  |  |  |  |  |  |  |  |  |  |  | lowered mean arterial pressure | Tachycardia was observed on day 1 | heart rate was returned to control level during the next three days | No evidence for systemic angiotensin II receptor antagonism was observed
